# According to patent US12195460B2, “Pyrido-[3,4-d]pyridazine amine derivatives useful as NLRP3 inhibitors” (Ventus Therapeutics U.S., Inc., priority 2022, dated 2025):
# Experiment: Brain levels (Kp and Kpu,u) in mice after oral administration
# Type: in vivo, CDI mice
# Details: 20 mpk PO; for kpu, u: kp corrected with mouse plasma protein binding and mouse brain homogenate binding; for Kp at 24 h: CDI, mouse, 20 mg/kg, whole brain AUC over 24 h divided by plasma AUC
# Protocol: Brain Levels (Kp and Kpu,u)—NLRP3
# The in vivo total brain to plasma ratio was assessed in CDI mice after oral administration of the compound. Blood was collected at several timepoints up to 24 h, and transferred into plastic micro centrifuge tubes with EDTA-K2 as anticoagulant. Blood samples were centrifuged at 4000 g for 5 minutes at 4° C. to obtain plasma, then immediately frozen and stored at −75±15° C. prior to analysis. Animals were terminally anaesthetized with a rising concentration of CO2 gas at about 1 minute. At selected timepoints, whole brains were removed from the skull, rinsed in cold PBS to remove blood, dried with clean gauze, then frozen in liquid nitrogen and kept at −75±15° C. before analysis. At the time of analysis, brain samples were homogenized with PBS by tissue weight (g) to PBS volume (mL) ratio 1:3. Plasma and brain drug levels were quantified by LC/MS/MS on a AB Sciex Triple Quad 5500+ instrument, after separation on a HALO 160A ES-C18, 2.7 μm 2.1×50 mm column. Quantitation was performed using a calibration curve prepared in blank plasma or blank brain homogenate. The software WinNonlin (Phoenix™) was used for pharmacokinetic analysis from the concentrations versus time data, including the AUCinf and AUClast. The Kp ratio (total brain concentration over total plasma concentration) was calculated as (AUCtot,hr)/(AUCtot,pl).
# The unbound brain exposure was assessed as Kpuu, which is the free brain/free plasma concentration ratio (Cu,hr/Cu,pl). The Cu,bt/Cu,pl ratios were obtained from in vivo total brain to plasma ratios (Ctot,br/Ctot,pl) by using in vitro determined Fu,br and Fu,pl.
# Plasma protein binding and brain homogenate protein binding were measured by equilibrium dialysis in a HTDialysis plate. The dialysis membranes were soaked in ultrapure water for 60 minutes to separate strips, then in 20% ethanol for 20 minutes, finally in dialysis buffer for 20 minutes. The dialysis set up was assembled according to the manufacturer's instruction. Each cell received 150 μL of plasma or brain homogenate spiked with 1 μM of compound, and dialyzed against an equal volume of dialysis buffer (PBS). The dialysis plate was sealed and incubated in an incubator at 37° C. with 5% CO2 at 100 rpm for 6 hours. At the end of incubation, compound concentration was measured in both chambers by LC-MS/MS on a Triple Quad™ 5500 from AB Inc after separation on a XSelect Hss T3 2.5μ (2.1×30 mm) column. Free fraction (Fu) was calculated as (Peak Area Ratio buffer chamber/Peak Area Ratio plasma chamber).
# Finally, Kpuu was calculated as (AUCtot,br×Fu,bt)/(AUCtot,pl×Fu,pl).
# Table 3 assigns each compound a code for kp and kpu,u values: A or B. According to the code, A represents a value of >0.3 and B represents a value of <0.3. […] The kpu,u was then calculated upon correcting this kp value with mouse plasma protein binding and mouse brain homogenates binding.
Compound,"kpu, u",Kp at 24 h
"CC1(C)COC[C@@H]1Nc1nnc(-c2ccc(Cl)cc2O)c2ccncc12 [Compound 1, (R)-5-chloro-2-(4-((4,4-dimethyltetrahydrofuran-3-yl)amino)pyrido[3,4-d]pyridazin-1-yl)phenol]",A (A represents a value of >0.3),
"[2H]C([2H])([2H])OC(C)(C)CNc1nnc(-c2ccc(C(F)F)cc2O)c2ccncc12 [Compound 2, 5-(difluoromethyl)-2-(4-((2-(methoxy-d3)-2-methylpropyl)amino)pyrido[3,4-d]pyridazin-1-yl)phenol]",A (A represents a value of >0.3),> 0.3
"CC1(C)COCC[C@H]1Nc1nnc(-c2ccc(Cl)cc2O)c2ccncc12 [Compound 3, (R)-5-chloro-2-(4-((3,3-dimethyltetrahydro-2H-pyran-4-yl)amino)pyrido[3,4-d]pyridazin-1-yl)phenol]",A (A represents a value of >0.3),> 0.3
"CC1(C)C[C@@H](Nc2nnc(-c3ccc(Cl)cc3O)c3ccncc23)CCO1 [Compound 4, (S)-5-chloro-2-(4-((2,2-dimethyltetrahydro-2H-pyran-4-yl)amino)pyrido[3,4-d]pyridazin-1-yl)phenol]",A (A represents a value of >0.3),
"Cc1ccc(-c2nnc(N[C@H]3COC(C)(C)C3)c3cnccc23)c(O)c1 [Compound 5, (R)-2-(4-((5,5-dimethyltetrahydrofuran-3-yl)amino)pyrido[3,4-d]pyridazin-1-yl)-5-methylphenol]",A (A represents a value of >0.3),> 0.3
"CN1CCO[C@@H](CNc2nnc(-c3ccc(C(F)(F)F)cc3O)c3ccncc23)C1 [Compound 6, (S)-2-(4-(((4-methylmorpholin-2-yl)methyl)amino)pyrido[3,4-d]pyridazin-1-yl)-5-(trifluoromethyl)phenol]",A (A represents a value of >0.3),
"Oc1cc(Cl)ccc1-c1nnc(N[C@H]2CCOC2)c2cnccc12 [Compound 7, (S)-5-chloro-2-(4-((tetrahydrofuran-3-yl)amino)pyrido[3,4-d]pyridazin-1-yl)phenol, reference compound]",B (B represents a value of <0.3),
"OCC1(CNc2nnc(-c3ccc(Cl)cc3O)c3ccncc23)CC1 [Compound 8, 5-chloro-2-(4-(((1-(hydroxymethyl)cyclopropyl)methyl)amino)pyrido[3,4-d]pyridazin-1-yl)phenol, reference compound]",B (B represents a value of <0.3),< 0.3
